Laboratory results: ChEMBL document CHEMBL6083184, “Small molecule agents against alopecia: Potential targets and related pathways” (Eur J Med Chem, 2024)
pIC50: −log10 of the molar value.

What was measured:
[1] = molecular target: Mothers against decapentaplegic homolog 2 (Homo sapiens, UniProt Q15796); test: Inhibition of SMAD2 (unknown origin)
[2] = Inhibition of MPC (unknown origin); design: species or system Homo sapiens

Sequence of Mothers against decapentaplegic homolog 2 (Q15796 whole entry): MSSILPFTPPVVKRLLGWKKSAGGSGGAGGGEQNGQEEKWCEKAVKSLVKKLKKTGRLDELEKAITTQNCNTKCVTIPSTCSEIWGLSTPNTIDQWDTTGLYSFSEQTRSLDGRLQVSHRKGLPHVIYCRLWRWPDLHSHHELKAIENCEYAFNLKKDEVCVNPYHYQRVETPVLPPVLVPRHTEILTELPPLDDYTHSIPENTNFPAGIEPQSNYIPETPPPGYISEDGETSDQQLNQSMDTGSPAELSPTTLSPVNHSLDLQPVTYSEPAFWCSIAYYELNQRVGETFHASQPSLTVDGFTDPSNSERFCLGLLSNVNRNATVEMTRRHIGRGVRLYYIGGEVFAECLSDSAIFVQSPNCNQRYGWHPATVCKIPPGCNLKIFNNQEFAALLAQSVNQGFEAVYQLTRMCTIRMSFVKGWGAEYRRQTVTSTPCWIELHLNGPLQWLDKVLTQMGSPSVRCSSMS

Structure (SMILES)	pIC50 [1]	pIC50 [2]
Cc1csc(-c2nc[nH]c2-c2ccc3ncsc3c2)n1	8.06	–
N#C/C(=C\c1cn(-c2ccccc2)c2ccccc12)C(=O)O	–	7.78
